{"source": "patent US12156893B2", "about": "“Oral composition comprising lactic acid bacteria for regulating immune responses and methods related thereto” (The Regents of the University of California, priority 2016, dated 2024)"}
{"test_system": "NK cells", "experiment": "Production of cytokines, growth factors and chemokines by NK cells treated with bacterial strains (Bio-Plex 27-plex)", "format": "cell-based, human", "design": "unit not given here", "conditions": "Treatment NK (no activation); bacteria 1:5 NK cell:bacteria, 12-18 hours", "experimental": "(§1) Different strains of probiotic bacteria were tested for their ability to induce IFN-g as well as a number of important cytokines, chemokines and growth factors (Table 1). To assess the levels of each strain used in the combination we used an activation index established in the lab for the NK cells which consisted of the use of a specific ratio of several important cytokines and chemokines that prevented auto-immunity while enhancing significant activation of NK cells under pathologic conditions. Therefore, the strains were selected to: 1) provide regulated activation of NK cells when no activation of NK cells is desired; 2) when activated by cytokines and/or cross-linking of the important receptors which occurs during functional activation of NK cells in cancer is to induce maximal activation of NK cells; and 3) provide diversity for gut microflora. These criteria allow us to use bacteria to regulate the gut mucosal immunity in such a way that we will only increase NK activation when needed during infections or malignancies. In other words when there is no need for function of NK cells bacteria will regulate NK function to not induce inflammation; however, during need which occurs under the pathological conditions NK cells are triggered to function at the maximal levels. Such coordinated regulation of NK cell function should be effective in halting unwanted inflammation while providing effective and maximal immunity during disease.\n(§2) Written informed consents, approved by UCLA Institutional Review Board (IRB), were obtained from healthy blood donors, and all procedures were approved by the UCLA-IRB. Peripheral blood was separated using Ficoll-Hypaque centrifugation, after which the white, cloudy layer, containing peripheral blood mononuclear cells (PBMC), was harvested, washed and re-suspended in RPMI 1640 (Invitrogen by Life Technologies, CA) supplemented with 10% FBS and plated on plastic tissue culture dishes. After 1-2 hours of incubation, non-adherent, human peripheral blood lymphocytes (PBL) were collected. NK cells were negatively selected and isolated from PBLs using the EasySep® Human NK cell enrichment kit purchased from Stem Cell Technologies (Vancouver, BC, Canada). Isolated NK cells were stained with anti-CD16 antibody, to measure NK cell purity using flow cytometric analysis. The isolated NK cell population was greater than 90% purity. Purified NK cells were cultured in RPMI Medium 1640 supplemented with 10% FBS (Gemini Bio-Products, CA), 1% antibiotic antimycotic, 1% sodium pyruvate, and 1% MEM non-essential amino acids (Invitrogen, Life Technologies, CA).\n(§3) Purified NK cells from healthy donors were left untreated or treated with IL-2 (1000 units/ml) or the combination of anti-CD16 mAb (3 μg/ml) and IL-2 (1000 units/ml) in the presence or absence of bacterial strains at 1:5 ratio (NK cell: bacteria) for 12-18 hours. Afterwards, the levels of cytokines, growth factors and chemokines were determined using Bio-Plex Pro Human Cytokine 27-plex Assay Kit."}
{"substance": "Bifidobacterium longum [B. longum]", "Eotaxin": 32, "G-CSF": 938, "GM-CSF": 131, "IFN-γ": 158, "IL-1B": 813, "IL-1ra": 312, "IL-6": 60895, "IL-8": 9507, "IL-10": 298, "IL-12p70": 42, "IL-13": 9, "IL-17": 74, "IP-10": 38, "MCP-1": 80, "RANTES": 2325, "TNF-α": 5880}
{"substance": "Bifidobacterium breve [B. breve]", "Eotaxin": 15, "G-CSF": 363, "GM-CSF": 101, "IFN-γ": 99, "IL-1B": 200, "IL-1ra": 196, "IL-6": 9726, "IL-8": 3975, "IL-10": 127, "IL-12p70": 10, "IL-13": 5, "IL-17": 53, "IP-10": 32, "MCP-1": 265, "RANTES": 1662, "TNF-α": 2904}
{"substance": "Lactobacillus bulgaricus [L. bulgaricus]", "Eotaxin": 7, "G-CSF": 77, "GM-CSF": 121, "IFN-γ": 144, "IL-1B": 293, "IL-1ra": 112, "IL-6": 2518, "IL-8": 4501, "IL-10": 22, "IL-12p70": 25, "IL-13": 9, "IL-17": 49, "IP-10": 88, "MCP-1": 609, "RANTES": 3804, "TNF-α": 868}
{"test_system": "NK cells", "experiment": "Production of cytokines, growth factors and chemokines by NK cells treated with bacterial strains (Bio-Plex 27-plex)", "format": "cell-based, human", "design": "unit not given here", "conditions": "Treatment NK + IL-2 (1000 units/ml); bacteria 1:5, 12-18 hours", "experimental": "as §1, §2, §3"}
{"substance": "Bifidobacterium longum [B. longum]", "Eotaxin": 33, "G-CSF": 244, "GM-CSF": 135, "IFN-γ": 671, "IL-1B": 408, "IL-1ra": 472, "IL-6": 7287, "IL-8": 2195, "IL-10": 52, "IL-12p70": 47, "IL-13": 11, "IL-17": 73, "IP-10": 46, "MCP-1": 33, "RANTES": 2189, "TNF-α": 2896}
{"substance": "Bifidobacterium breve [B. breve]", "Eotaxin": 22, "G-CSF": 138, "GM-CSF": 127, "IFN-γ": 284, "IL-1B": 165, "IL-1ra": 470, "IL-6": 3402, "IL-8": 1912, "IL-10": 36, "IL-12p70": 21, "IL-13": 9, "IL-17": 57, "IP-10": 35, "MCP-1": 72, "RANTES": 1988, "TNF-α": 1868}
{"substance": "Lactobacillus bulgaricus [L. bulgaricus]", "Eotaxin": 15, "G-CSF": 69, "GM-CSF": 120, "IFN-γ": 381, "IL-1B": 123, "IL-1ra": 449, "IL-6": 837, "IL-8": 1997, "IL-10": 12, "IL-12p70": 21, "IL-13": 10, "IL-17": 55, "IP-10": 78, "MCP-1": 313, "RANTES": 4737, "TNF-α": 439}
{"test_system": "NK cells", "experiment": "Production of cytokines, growth factors and chemokines by NK cells treated with bacterial strains (Bio-Plex 27-plex)", "format": "cell-based, human", "design": "unit not given here", "conditions": "Treatment NK + IL-2 + anti-CD16 mAb (3 μg/ml); bacteria 1:5, 12-18 hours", "experimental": "as §1, §2, §3"}
{"substance": "Bifidobacterium longum [B. longum]", "Eotaxin": 28, "G-CSF": 386, "GM-CSF": 158, "IFN-γ": 1282, "IL-1B": 498, "IL-1ra": 461, "IL-6": 2916, "IL-8": 2906, "IL-10": 68, "IL-12p70": 33, "IL-13": 19, "IL-17": 69, "IP-10": 42, "MCP-1": 75, "RANTES": 1088, "TNF-α": 4240}
{"substance": "Bifidobacterium breve [B. breve]", "Eotaxin": 29, "G-CSF": 289, "GM-CSF": 180, "IFN-γ": 844, "IL-1B": 421, "IL-1ra": 565, "IL-6": 7261, "IL-8": 4929, "IL-10": 68, "IL-12p70": 26, "IL-13": 28, "IL-17": 72, "IP-10": 55, "MCP-1": 153, "RANTES": 3934, "TNF-α": 1498}
{"substance": "Lactobacillus bulgaricus [L. bulgaricus]", "Eotaxin": 6, "G-CSF": 59, "GM-CSF": 136, "IFN-γ": 306, "IL-1B": 141, "IL-1ra": 383, "IL-6": 685, "IL-8": 1819, "IL-10": 9, "IL-12p70": 5, "IL-13": 8, "IL-17": 50, "IP-10": 72, "MCP-1": 305, "RANTES": 4062, "TNF-α": 1064}
